Source: patent US9493490B1, “Boron-containing small molecules” (Anacor Pharmaceuticals, Inc., priority 2013, dated 2016)
Like-named read-outs stand apart in the source and are kept apart here.

How the values were obtained:
[1] = system: TNF-a secretion from LPS stimulated hPBMC; test: Inhibition of TNF-a secretion from LPS stimulated hPBMC; format: cell-based, human; details: LPS for 24 hours
Experimental: Measurement of the inhibition of cytokine secretion from stimulated human peripheral blood mononuclear cells by drugs was performed as described in Dong C. et al., J Pharmacol Exp Ther. 2013 February; 344(2):436-46; and Akama T. et al., Bioorg Med Chem Lett. 2013 Mar. 15; 23(6):1680-3. Briefly PBMC were incubated with drug, and stimulators; LPS for 24 hours to release TNF-α, and IL-6; PHA for 24 hours, to release IL-2 and IFN-γ, and PHA for 48 hours, to release IL-5 and IL-13. The cell culture supernatants were collected for cytokine determinations using Cisbio HTRF cytokine determination kits. Compounds were prepared using an eight point 1:10 dilution series starting at 10 or 100 uM; the resulting dose-response curves were fit to the four parameter sigmoid equation.

ROCK1 [2] = molecular target: T1, ROCK1 (Homo sapiens (Human), UniProt Q13464); test: ROCK1 phosphorylation activity (Reaction Biology, radiometric); format: biochemical, H. sapiens
Experimental: (§1) Phosphorylation of activity of ROCK1 and ROCK2 and those of other kinases, AKT1, GRK2, PKA, PKCa and RSK1 were performed by Reaction Biology (Malvern, Pa.) (Ma et al., 2008) The ROCK1 enzyme tested was GST[1-535] ROCK1 (Genbank, NP 005397), ROCK2 was GST[5-554] (Genbank, 3327051). For the kinase assay buffers contained 20 mM Hepes, 10 mM MgCl2, 2 mM DTT, 0.02 mg/mL BSA, 0.1% DMSO, 1 mM EGTA, 0.02% Brij-35, 10 uM ATP, [γP^33]-ATP and for ROCK enzymes, 20 uM long S6-peptide (32 amino acids length). Appropriate substrates and activation was applied for the other kinases tested. Each enzyme was preincubated with test compound for 15 min., and the reaction started by addition of ATP. Samples were incubated at room temperature for 120 min, and applied to P81 ion exchange paper and washed extensively; the radioactive content of the filters were determined. […] Selectivity ratio is the value for PKA/ROCK2.
Target sequence in this assay (Q13464 1-535): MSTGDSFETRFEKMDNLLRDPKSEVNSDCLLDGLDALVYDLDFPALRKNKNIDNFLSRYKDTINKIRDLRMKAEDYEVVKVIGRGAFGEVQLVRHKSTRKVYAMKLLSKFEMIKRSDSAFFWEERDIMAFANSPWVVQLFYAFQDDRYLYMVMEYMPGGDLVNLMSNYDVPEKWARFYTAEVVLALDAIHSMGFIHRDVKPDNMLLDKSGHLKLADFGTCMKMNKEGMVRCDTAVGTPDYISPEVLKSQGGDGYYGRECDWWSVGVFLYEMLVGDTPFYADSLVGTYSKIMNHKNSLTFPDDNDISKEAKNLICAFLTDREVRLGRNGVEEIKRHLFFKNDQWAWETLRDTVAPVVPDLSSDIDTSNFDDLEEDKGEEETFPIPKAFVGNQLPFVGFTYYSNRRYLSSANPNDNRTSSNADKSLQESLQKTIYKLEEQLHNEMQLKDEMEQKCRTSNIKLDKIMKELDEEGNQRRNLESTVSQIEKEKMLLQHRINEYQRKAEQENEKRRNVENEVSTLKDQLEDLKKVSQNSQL

ROCK1 [3] = molecular target: T1, ROCK1; test: Kinase binding panel (KINOMEscan), ROCK1; details: table under Kinase Binding Panel
Experimental: (§2) Kinase inhibition potency was measured using KINOMEscan™ technology across 402 human kinases [Fabian et al., Nat Biotechnol. 2005 March; 23(3):329-36] (DiscoverRx, Inc., (Fremont, Calif.)). The assay is based on a competition binding assay which quantitatively measures the ability of a compound to compete with an immobilized, active-site directed ligand. […] 2008 January; 26(1):127-32; Fabian et al., Nat Biotechnol. 2005 March; 23(3):329-36]. The assay is performed by combining three components: DNA-tagged kinase; immobilized ligand; and a test compound. Binding reactions were assembled by combining, for 1 hr at room temperature, kinases, liganded affinity beads, and test compounds in binding buffer (20% SeaBlock, 0.17×PBS, 0.05% Tween-20, 6 mM DTT). The assay plates were washed and then re-suspended in elution buffer for 30 min. (PBS, 0.05% Tween 20, 0.5 μM non-biotinylated affinity ligand). The kinase concentration in the eluates was measured by qPCR.
Target sequence in this assay (Q13464 whole entry): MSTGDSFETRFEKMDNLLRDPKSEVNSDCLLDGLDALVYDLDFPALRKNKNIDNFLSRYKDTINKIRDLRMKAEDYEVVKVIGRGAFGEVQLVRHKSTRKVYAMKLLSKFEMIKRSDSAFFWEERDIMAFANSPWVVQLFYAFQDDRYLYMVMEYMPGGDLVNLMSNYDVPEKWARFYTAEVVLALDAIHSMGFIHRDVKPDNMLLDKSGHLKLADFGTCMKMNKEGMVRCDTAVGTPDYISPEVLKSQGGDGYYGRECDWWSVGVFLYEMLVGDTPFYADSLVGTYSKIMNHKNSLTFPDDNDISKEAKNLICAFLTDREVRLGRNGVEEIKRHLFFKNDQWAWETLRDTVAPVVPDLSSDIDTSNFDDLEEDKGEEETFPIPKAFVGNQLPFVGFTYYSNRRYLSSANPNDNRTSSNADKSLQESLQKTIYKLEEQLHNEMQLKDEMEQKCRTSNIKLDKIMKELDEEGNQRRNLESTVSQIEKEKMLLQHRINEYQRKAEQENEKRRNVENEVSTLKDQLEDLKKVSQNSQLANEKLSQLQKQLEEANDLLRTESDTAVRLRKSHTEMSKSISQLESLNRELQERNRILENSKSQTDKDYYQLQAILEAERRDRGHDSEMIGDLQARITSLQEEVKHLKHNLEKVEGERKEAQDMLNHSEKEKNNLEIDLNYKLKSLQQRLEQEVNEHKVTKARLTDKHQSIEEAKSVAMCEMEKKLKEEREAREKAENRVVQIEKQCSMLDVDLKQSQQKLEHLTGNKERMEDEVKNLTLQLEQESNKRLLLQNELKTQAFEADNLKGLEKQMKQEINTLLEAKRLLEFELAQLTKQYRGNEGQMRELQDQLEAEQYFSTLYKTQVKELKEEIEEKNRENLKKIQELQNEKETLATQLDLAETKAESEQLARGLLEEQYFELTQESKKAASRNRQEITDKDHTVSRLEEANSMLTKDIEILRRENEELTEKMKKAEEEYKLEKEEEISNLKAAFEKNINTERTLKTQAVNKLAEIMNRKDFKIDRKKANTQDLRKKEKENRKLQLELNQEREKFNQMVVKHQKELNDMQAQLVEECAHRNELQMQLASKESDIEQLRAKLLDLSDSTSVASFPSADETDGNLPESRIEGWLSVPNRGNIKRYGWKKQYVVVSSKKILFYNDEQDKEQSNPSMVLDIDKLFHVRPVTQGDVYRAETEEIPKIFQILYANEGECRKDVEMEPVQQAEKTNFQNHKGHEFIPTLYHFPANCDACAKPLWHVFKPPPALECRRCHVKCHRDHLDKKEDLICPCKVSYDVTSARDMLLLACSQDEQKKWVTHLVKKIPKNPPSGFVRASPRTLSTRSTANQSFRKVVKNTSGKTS

ROCK2 [4] = molecular target: T2, ROCK2 (Homo sapiens (Human), UniProt O75116); test: Kinase binding panel (KINOMEscan), ROCK2; details: table under Kinase Binding Panel
Experimental: as §2

ROCK2 [5] = molecular target: T2, ROCK2; test: ROCK2 phosphorylation activity (Reaction Biology, radiometric); format: biochemical; details: for IC50: 10 uM ATP
Experimental: as §1
Target sequence in this assay (O75116 5-554): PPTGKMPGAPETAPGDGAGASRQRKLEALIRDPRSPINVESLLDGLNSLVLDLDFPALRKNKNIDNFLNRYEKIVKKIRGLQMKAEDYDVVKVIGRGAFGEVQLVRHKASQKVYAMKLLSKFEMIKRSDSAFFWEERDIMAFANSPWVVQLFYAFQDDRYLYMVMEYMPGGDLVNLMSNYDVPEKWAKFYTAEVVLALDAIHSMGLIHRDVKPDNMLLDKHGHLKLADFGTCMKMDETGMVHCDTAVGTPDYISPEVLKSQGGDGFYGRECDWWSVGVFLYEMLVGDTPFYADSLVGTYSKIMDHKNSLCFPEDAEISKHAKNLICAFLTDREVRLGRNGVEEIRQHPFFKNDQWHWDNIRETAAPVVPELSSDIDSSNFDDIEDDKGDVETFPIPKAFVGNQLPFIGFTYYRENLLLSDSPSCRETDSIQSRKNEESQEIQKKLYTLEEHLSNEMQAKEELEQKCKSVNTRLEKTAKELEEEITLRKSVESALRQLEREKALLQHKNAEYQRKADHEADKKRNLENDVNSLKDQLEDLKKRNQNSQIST

AKT1 = AKT1 (Homo sapiens (Human), UniProt P31749); test: AKT1 phosphorylation activity; format: biochemical; details: 10 uM ATP
Sequence of AKT1 (P31749 whole entry, species assumed): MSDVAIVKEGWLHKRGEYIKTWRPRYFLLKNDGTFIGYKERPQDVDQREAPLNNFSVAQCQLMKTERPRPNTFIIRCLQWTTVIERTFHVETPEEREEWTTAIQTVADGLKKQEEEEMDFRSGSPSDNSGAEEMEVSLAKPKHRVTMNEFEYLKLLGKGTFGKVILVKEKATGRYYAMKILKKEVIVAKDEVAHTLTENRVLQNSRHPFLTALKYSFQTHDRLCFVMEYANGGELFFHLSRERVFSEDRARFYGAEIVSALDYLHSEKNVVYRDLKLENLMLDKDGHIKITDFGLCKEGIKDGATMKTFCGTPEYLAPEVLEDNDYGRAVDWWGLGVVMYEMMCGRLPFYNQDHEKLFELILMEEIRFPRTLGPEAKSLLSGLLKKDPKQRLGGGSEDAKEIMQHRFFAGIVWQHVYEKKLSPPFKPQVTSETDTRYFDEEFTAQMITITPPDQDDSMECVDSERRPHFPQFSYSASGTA
Experimental: as §1

GRK2 = GRK2 (Homo sapiens (Human), UniProt P25098); test: GRK2 phosphorylation activity; format: biochemical; details: 10 uM ATP
Sequence of GRK2 (P25098 whole entry, species assumed): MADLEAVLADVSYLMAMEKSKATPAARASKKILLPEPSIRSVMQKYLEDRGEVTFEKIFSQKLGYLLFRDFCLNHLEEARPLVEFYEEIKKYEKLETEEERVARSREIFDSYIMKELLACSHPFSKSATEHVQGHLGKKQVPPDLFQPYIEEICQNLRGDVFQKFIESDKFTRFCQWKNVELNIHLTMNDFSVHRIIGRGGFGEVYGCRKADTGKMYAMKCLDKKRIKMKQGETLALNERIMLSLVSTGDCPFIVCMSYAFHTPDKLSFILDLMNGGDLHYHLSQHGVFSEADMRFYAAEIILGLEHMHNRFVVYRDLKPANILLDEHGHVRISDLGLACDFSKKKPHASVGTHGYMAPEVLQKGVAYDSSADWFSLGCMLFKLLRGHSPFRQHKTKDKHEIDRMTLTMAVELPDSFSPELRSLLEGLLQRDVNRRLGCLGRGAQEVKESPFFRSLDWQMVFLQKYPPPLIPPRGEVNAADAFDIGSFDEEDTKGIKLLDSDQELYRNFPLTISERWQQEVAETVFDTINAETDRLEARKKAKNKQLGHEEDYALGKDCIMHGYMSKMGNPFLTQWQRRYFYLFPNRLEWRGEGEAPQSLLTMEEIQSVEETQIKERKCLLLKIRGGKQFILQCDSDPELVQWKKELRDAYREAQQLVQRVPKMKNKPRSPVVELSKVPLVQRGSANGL
Experimental: as §1

PKA = PKA (Homo sapiens (Human), UniProt P17612); test: PKA phosphorylation activity; format: biochemical; details: 10 uM ATP
Experimental: as §1

PKCa = PKCa (Homo sapiens (Human), UniProt P17252); test: PKCa phosphorylation activity; format: biochemical; details: 10 uM ATP
Experimental: as §1

RSK1 = RSK1 (Homo sapiens (Human), UniProt Q15418); test: RSK1 phosphorylation activity; format: biochemical; details: 10 uM ATP
Sequence of RSK1 (Q15418 whole entry, species assumed): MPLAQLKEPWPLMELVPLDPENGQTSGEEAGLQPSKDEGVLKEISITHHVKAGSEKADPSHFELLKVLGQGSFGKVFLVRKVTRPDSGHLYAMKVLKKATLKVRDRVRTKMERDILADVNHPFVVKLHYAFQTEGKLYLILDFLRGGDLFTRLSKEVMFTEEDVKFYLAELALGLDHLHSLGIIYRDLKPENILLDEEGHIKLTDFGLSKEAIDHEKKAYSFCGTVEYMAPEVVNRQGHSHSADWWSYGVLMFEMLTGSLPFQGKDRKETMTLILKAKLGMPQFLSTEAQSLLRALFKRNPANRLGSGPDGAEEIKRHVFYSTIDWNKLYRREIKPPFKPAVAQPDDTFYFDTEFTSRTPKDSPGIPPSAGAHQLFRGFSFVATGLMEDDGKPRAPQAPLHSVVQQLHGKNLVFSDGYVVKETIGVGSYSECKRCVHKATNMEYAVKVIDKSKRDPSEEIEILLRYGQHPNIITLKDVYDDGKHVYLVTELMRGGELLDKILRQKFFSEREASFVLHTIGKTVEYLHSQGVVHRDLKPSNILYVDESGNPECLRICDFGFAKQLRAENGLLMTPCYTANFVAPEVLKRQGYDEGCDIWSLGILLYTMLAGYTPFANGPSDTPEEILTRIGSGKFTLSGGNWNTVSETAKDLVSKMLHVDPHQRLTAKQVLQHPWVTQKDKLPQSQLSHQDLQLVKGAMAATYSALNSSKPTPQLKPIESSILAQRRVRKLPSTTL
Experimental: as §1

[6] = system: p-MYPT1 phosphorylation in PANC-1 cells; test: Intracellular MYPT1 phosphorylation assay in PANC-1 cells; format: cell-based, H. sapiens; details: Homo sapiens
Experimental: Intracellular MYPT1 phosphorylation assay used the procedures of Garton et al. with minor modifications (Garton et al. Methods Enzymol. 2008; 439:491-500). PANC-1 cells (ACTT, CRL-1469), 18×10^3/well, grown over night in DMEM medium supplemented with 4.5 g/L glucose, L-glutamine, sodium pyruvate and 10% FBS at 37° C. Compounds were applied to the cells for one hour (DMSO final 1%) and the cells were then lysed. Phosphorylated-MYPT1 was detected using plate immobilized anti-MYPT1 antibody (BD Biosciences, cat. 612165), anti-phospo-MYPT1([…]), US Biological, cat. M9925-08) and secondary HRP-conjugated goat anti-rabbit IgG antibody (Jackson Laboratories, cat. 111-035-003), phospho-MYPT1 was quantified using color formed by the tetramethylbenzidine (TMB) HRP substrate.

[7] = read-out: IC50: ROCK1: H. sapiens
[8] = read-out: Inhibition of hROCK1 Phosphorylation [IC50
[9] = PANC-1 cells, .0417 days (compounds applied for one hour), read-out: IC50: Inhib p-MYPT1 Phosphorylation in H. sapiens PANC-1 cells, .0417 days
[10] = 10 uM ATP, read-out: ROCK1 IC50

SMILES	IC50 ([1]; Homo sapiens, 24 h) [µM]	IC50 (ROCK1 [2]; [7]) [µM]	IC50 (ROCK1 [2]; [8]) [µM]	IC50 (ROCK1 [3]) [µM]	IC50 (ROCK2 [4]) [µM]	SELECTIVITY RATIO (ROCK2 [5]; value for PKA/ROCK2)	IC50 (AKT1) [µM]	IC50 (GRK2) [µM]	IC50 (PKA) [µM]	IC50 (PKCa) [µM]	IC50 (RSK1) [µM]	IC50 [6, 9] [µM]	IC50 (ROCK1 [2]; [10]) [µM]	IC50 (ROCK2 [5]) [µM]	IC50 ([1]; Homo sapiens) [µM]	IC50 [1] [µM]	S[…] (ROCK2 [5]; value for PKA/ROCK2)	IC50 ([6]; PANC-1, read-out: IC50: Inhib p-MYPT1 Phosphorylation in H. sapiens PANC-1 cells, .0417 days [uM]) [µM]
Cc1c(Oc2ccc(CN)cc2F)ccc2c1B(O)OC2 [D, 6-(4-(aminomethyl)-2-fluorophenoxy)-7-methylbenzo[c][1,2]oxaborol-1(3H)-ol]	12.3	0.34	0.34	0.34	0.25	16.29	9.25	> 20	4.06	> 20	5.01	18.2						
Cc1c(Oc2cccc(CN)c2F)ccc2c1B(O)OC2 [M, 6-(3-(aminomethyl)-2-fluorophenoxy)-7-methylbenzo[c][1,2]oxaborol-1(3H)-ol]			0.247	0.247	0.216	15.65	> 30	> 30	3.38	> 30	5.19		0.25	0.22				
Cc1c(Oc2cccc(CNC(=O)OC(C)(C)C)c2F)ccc2c1B(O)OC2 [L, tert-butyl 2-fluoro-3-(1-hydroxy-7-methyl-1,3-dihydrobenzo[c][1,2]oxaborol-6-yloxy)benzylcarbamate]			0.72	0.72	0.664	11.87	> 30	> 30	7.88	> 30	25			0.66				
CC(C)c1c(Oc2ccc(CN)cc2Cl)ccc2c1B(O)OC2 [N, 6-(4-(aminomethyl)-2-chlorophenoxy)-7-isopropylbenzo[c][1,2]oxaborol-1 (3H)-ol]			0.596	0.0596	0.0472	1.17	4.22		0.055	10.8	0.195		0.06	0.047	5.63			
Cc1c(Oc2ccc(C(C)N)cc2F)ccc2c1B(O)OC2 (single isomer, unassigned) [G]		0.17	0.17	0.17	0.17		10.9	13.9	1.79	15.6	3.62					5.18	10.40	18.7
CC(N)c1ccc(Oc2ccc3c(c2)B(O)OC3)c(F)c1.Cl (stereo not shown) [C, 6-(4-(1-aminoethyl)-2-fluorophenoxy)benzo[c][1,2]oxaborol-1(3H)-ol]	12	0.54	0.54	0.54	0.45	>111	> 30	> 20	> 50	> 20	> 50	48.1						
Cc1c(Oc2ccc(C(C)N)cc2F)ccc2c1B(O)OC2 (stereo not shown) [E, 6-(4-(1-aminoethyl)-2-fluorophenoxy)-7-methylbenzo[c][1,2]oxaborol-1(3H)-ol]	5.4	0.42	0.42	0.42	0.25	24.74	21.5	> 20	6.09	> 20	8.31	39.7						
CCc1c(Oc2ccc(CN)cc2Cl)ccc2c1B(O)OC2 [A, 6-(4-(Aminomethyl)-2-chlorophenoxy)-7-ethylbenzo[c][1,2]oxaborol-1(3H)-ol]			0.29	0.29	0.25										3.61			
Cc1c(Oc2ccc(C(C)N)cc2F)ccc2c1B(O)OC2.Cl (single isomer, unassigned) [F]		0.54	0.54	0.54	0.51	21.51	44.1	> 20	11	> 20	17.2	56.4				20.5		
NCc1ccc(Oc2ccc3c(c2Cl)B(O)OC3)c(Cl)c1 [B, 6-(4-(aminomethyl)-2-chlorophenoxy)-7-chlorobenzo[c][1,2]oxaborol-1(3H)-ol]			11	23	16										99			
